Tests used:
[1] = molecular target: T1, Platelet-activating factor acetylhydrolase (Homo sapiens, UniProt Q13093); test: Inhibitory activity against human lipoprotein associated phospholipase A2 (Lp-PLA2)
T1 sequence (Q13093 whole entry): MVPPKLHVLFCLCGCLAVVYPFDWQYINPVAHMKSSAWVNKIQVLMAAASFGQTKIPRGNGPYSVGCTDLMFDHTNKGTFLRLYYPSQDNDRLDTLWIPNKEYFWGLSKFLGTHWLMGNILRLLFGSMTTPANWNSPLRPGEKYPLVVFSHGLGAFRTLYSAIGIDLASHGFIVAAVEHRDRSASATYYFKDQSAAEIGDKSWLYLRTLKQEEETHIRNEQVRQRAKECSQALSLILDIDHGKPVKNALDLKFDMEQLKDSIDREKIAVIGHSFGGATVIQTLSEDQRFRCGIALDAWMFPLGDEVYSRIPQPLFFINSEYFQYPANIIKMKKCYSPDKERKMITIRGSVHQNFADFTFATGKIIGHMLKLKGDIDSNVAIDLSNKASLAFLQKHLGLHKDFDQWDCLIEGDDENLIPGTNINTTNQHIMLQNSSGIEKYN

[2] = organism: Homo sapiens; test: Intrinsic clearance in human liver microsomes; assay type: ADME, Microsome
[3] = organism: Rattus norvegicus; test: Intrinsic clearance in rat liver microsomes; assay type: ADME, Microsome

| Compound | IC50 [1] | CLi [2] | CLi [3] |
| --- | --- | --- | --- |
| O=C(Cn1cc(Cc2cnc(C3CC3)nc2)c(=O)nc1SCc1ccc(F)cc1)N1CCN(c2ccc(Cl)cc2)CC1 | 0.021 µM | – | – |
| O=C(Cn1cc(Cc2cncnc2)c(=O)nc1SCc1ccc(F)cc1)N1CCNCC1 | 0.46 µM | – | – |
| O=C(Cn1cc(Cc2cncnc2)c(=O)nc1SCc1ccc(F)cc1)N1CCN(C(=O)c2ccccc2)CC1 | 1.28 µM | – | – |
| Cn1cc(Cc2cn(CCCC(=O)N3CCN(c4ccc(C(F)(F)F)cc4)CC3)c(SCc3ccc(F)cc3)nc2=O)cn1 | 0.005 µM | – | – |
| O=C(Cn1cc(Cc2cncnc2)c(=O)nc1SCc1ccc(F)cc1)N1CCN(c2ccc(C(F)(F)F)cc2)CC1 | 0.026 µM | – | – |
| COc1ncc(Cc2cn(CCCC(=O)N3CCN(c4ccc(C(F)(F)F)cc4)CC3)c(SCc3ccc(F)cc3)nc2=O)cn1 | 0.002 µM | – | – |
| Cn1cc(Cc2cn(CCCC(=O)N3CCN(c4ccc(Cl)c(Cl)c4)CC3)c(SCc3ccc(F)cc3)nc2=O)cnc1=O | 0.009 µM | – | – |
| COc1ncc(Cc2cn(CC(=O)N3CCN(c4ccc(Cl)cc4)CC3)c(SCc3ccc(F)cc3)nc2=O)cn1 | 0.02 µM | 3 mL/min/g | 2 mL/min/g |
| Cn1cc(Cc2cn(CC(=O)N3CCN(c4ccc(Cl)cc4)CC3)c(SCc3ccc(F)cc3)nc2=O)cn1 | 0.044 µM | – | – |
| O=C(O)Cn1cc(Cc2cn(CC(=O)N3CCN(c4ccc(Cl)cc4)CC3)c(SCc3ccc(F)cc3)nc2=O)cnc1=O | 0.089 µM | – | – |
| O=C(Cn1cc(Cc2cncnc2)c(=O)nc1SCc1ccc(F)cc1)N1CCN(c2ccc(F)cc2)CC1 | 0.097 µM | – | – |
| Cn1cc(Cc2cn(CC(=O)N3CCN(c4ccc(Cl)cc4)CC3)c(SCc3ccc(F)cc3)nc2=O)cnc1=O | 0.07 µM | 4 mL/min/g | 3 mL/min/g |
| O=C(Cn1cc(Cc2cncnc2)c(=O)nc1SCc1ccc(F)cc1)N1CCN(c2ccccn2)CC1 | 0.35 µM | – | – |
| Cn1cc(Cc2cn(CC(=O)N3CCN(C4CCCCC4)CC3)c(SCc3ccc(F)cc3)nc2=O)cn1 | 0.72 µM | – | – |
| CC(=O)c1ccc(N2CCN(C(=O)Cn3cc(Cc4cncnc4)c(=O)nc3SCc3ccc(F)cc3)CC2)cc1 | 0.13 µM | – | – |
| O=C(Cn1cc(Cc2cnc(N3CCOCC3)nc2)c(=O)nc1SCc1ccc(F)cc1)N1CCN(c2ccc(Cl)cc2)CC1 | 0.01 µM | > 50 mL/min/g | 13 mL/min/g |
| O=C(Cn1cc(Cc2cncnc2)c(=O)nc1SCc1ccc(F)cc1)N1CCN(c2ccccc2)C(=O)C1 | 6.7 µM | – | – |

Further lines, results first:

| IC50 [1] | CLi [2] | CLi [3] | Compound |
| --- | --- | --- | --- |
| 0.029 µM | – | – | CN(C)c1ncc(Cc2cn(CC(=O)N3CCN(c4ccc(Cl)cc4)CC3)c(SCc3ccc(F)cc3)nc2=O)cn1 |
| 0.018 µM | 7 mL/min/g | 3 mL/min/g | Cc1ncc(Cc2cn(CC(=O)N3CCN(c4ccc(Cl)cc4)CC3)c(SCc3ccc(F)cc3)nc2=O)cn1 |
| 0.051 µM | – | – | Cn1cc(Cc2cn(CC(=O)N3CCN(c4ccc(Br)cc4)CC3)c(SCc3ccc(F)cc3)nc2=O)cn1 |
| 0.26 µM | – | – | O=C(Cn1cc(Cc2cncnc2)c(=O)nc1SCc1ccc(F)cc1)N1CCN(S(=O)(=O)c2ccccc2)CC1 |
| 0.085 µM | – | – | O=C(Cn1cc(Cc2cncnc2)c(=O)nc1SCc1ccc(F)cc1)N1CCN(Cc2ccccc2)CC1 |
| 0.0004 µM | – | – | CCCCCCCC/C=C/CCCCCCCCNC(=O)CCCn1cc(Cc2cncnc2)c(=O)nc1SCc1ccc(F)cc1 |
| 0.41 µM | – | – | O=C(Cn1cc(Cc2cncnc2)c(=O)nc1SCc1ccc(F)cc1)N1CCN(c2cncnc2)CC1 |
| 0.002 µM | – | – | COc1ncc(Cc2cn(CCCC(=O)N3CCN(c4ccc(Cl)c(Cl)c4)CC3)c(SCc3ccc(F)cc3)nc2=O)cn1 |
| 0.53 µM | – | – | Cn1cc(Cc2cn(CC(=O)N3CCN(Cc4ccccc4)C(=O)C3)c(SCc3ccc(F)cc3)nc2=O)cn1 |
| 0.069 µM | – | – | O=C(Cn1cc(Cc2cnc(C(F)(F)F)nc2)c(=O)nc1SCc1ccc(F)cc1)N1CCN(c2ccc(Cl)cc2)CC1 |
| – | 7 mL/min/g | 2 mL/min/g | COc1ncc(Cc2cn(CC(=O)N3CCN(c4ccc(Cl)c(Cl)c4)CC3)c(SCc3ccc(F)cc3)nc2=O)cn1 |
| 0.003 µM | – | – | Cn1cc(Cc2cn(CCCC(=O)N3CCN(c4ccc(Cl)cc4)CC3)c(SCc3ccc(F)cc3)nc2=O)cn1 |
| 0.009 µM | – | – | O=C(O)Cn1cc(Cc2cn(CCCC(=O)N3CCN(c4ccc(Cl)c(Cl)c4)CC3)c(SCc3ccc(F)cc3)nc2=O)cnc1=O |
| 0.008 µM | > 50 mL/min/g | 19 mL/min/g | COc1ncc(Cc2cn(CCCC(=O)N3CCN(c4ccc(Cl)cc4)CC3)c(SCc3ccc(F)cc3)nc2=O)cn1 |
| 0.034 µM | – | – | CC(C)(C)c1ncc(Cc2cn(CC(=O)N3CCN(c4ccc(Cl)cc4)CC3)c(SCc3ccc(F)cc3)nc2=O)cn1 |
| 0.001 µM | – | – | CCCCCCCCCCCCN(C)C(=O)Cn1cc(Cc2cnc(OC)nc2)c(=O)nc1SCc1ccc(F)cc1 |
| 0.024 µM | – | – | CCCCCCCCN1CCN(C(=O)Cn2cc(Cc3cnn(C)c3)c(=O)nc2SCc2ccc(F)cc2)CC1 |
| 0.012 µM | 11 mL/min/g | 6 mL/min/g | Cn1cc(Cc2cn(CC(=O)N3CCN(c4ccc(Cl)c(Cl)c4)CC3)c(SCc3ccc(F)cc3)nc2=O)cn1 |
| 0.12 µM | – | – | O=C(Cn1cc(Cc2cncnc2)c(=O)nc1SCc1ccc(F)cc1)N1CCN(c2ccccc2)CC1 |
| 0.066 µM | – | – | O=C(Cn1cc(Cc2cncnc2)c(=O)nc1SCc1ccc(F)cc1)N1CCN(c2cccc(Cl)c2)CC1 |
| 0.176 µM | – | – | COc1ccc(N2CCN(C(=O)Cn3cc(Cc4cncnc4)c(=O)nc3SCc3ccc(F)cc3)CC2)cc1 |

From ChEMBL document CHEMBL1133875, “1-(Arylpiperazinylamidoalkyl)-pyrimidones: orally active inhibitors of lipoprotein-associated phospholipase A(2)” (Bioorg Med Chem Lett, 2001)
